From patent US10179801B2, “Truncated LYP-1 peptides and methods and compositions using truncated LYP-1 peptides” (SANFORD-BURNHAM MEDICAL RESEARCH INSTITUTE, priority 2011, dated 2019)
Entries after “also recorded” stand apart in the source; their conditions may differ. Ends that are not written are not given here. * marks the point of attachment. Biotin = O=C1N[C@H]2[C@H](CS[C@H]2CCCCC(=O)*)N1

Columns and labels:
tumor [1] = conditions: CGKRK by itself; cited from earlier work
NRP1 = molecular target: T1, NRP1 (Homo sapiens, UniProt O14786); experiment: Phage binding to DU145 cells with ligand-blocking anti-NRP1; type: cell-based; conditions: 4° C.
T1 construct: endogenous in cells; host or cells: DU145 prostate carcinoma cells
T1 sequence (O14786 22-923): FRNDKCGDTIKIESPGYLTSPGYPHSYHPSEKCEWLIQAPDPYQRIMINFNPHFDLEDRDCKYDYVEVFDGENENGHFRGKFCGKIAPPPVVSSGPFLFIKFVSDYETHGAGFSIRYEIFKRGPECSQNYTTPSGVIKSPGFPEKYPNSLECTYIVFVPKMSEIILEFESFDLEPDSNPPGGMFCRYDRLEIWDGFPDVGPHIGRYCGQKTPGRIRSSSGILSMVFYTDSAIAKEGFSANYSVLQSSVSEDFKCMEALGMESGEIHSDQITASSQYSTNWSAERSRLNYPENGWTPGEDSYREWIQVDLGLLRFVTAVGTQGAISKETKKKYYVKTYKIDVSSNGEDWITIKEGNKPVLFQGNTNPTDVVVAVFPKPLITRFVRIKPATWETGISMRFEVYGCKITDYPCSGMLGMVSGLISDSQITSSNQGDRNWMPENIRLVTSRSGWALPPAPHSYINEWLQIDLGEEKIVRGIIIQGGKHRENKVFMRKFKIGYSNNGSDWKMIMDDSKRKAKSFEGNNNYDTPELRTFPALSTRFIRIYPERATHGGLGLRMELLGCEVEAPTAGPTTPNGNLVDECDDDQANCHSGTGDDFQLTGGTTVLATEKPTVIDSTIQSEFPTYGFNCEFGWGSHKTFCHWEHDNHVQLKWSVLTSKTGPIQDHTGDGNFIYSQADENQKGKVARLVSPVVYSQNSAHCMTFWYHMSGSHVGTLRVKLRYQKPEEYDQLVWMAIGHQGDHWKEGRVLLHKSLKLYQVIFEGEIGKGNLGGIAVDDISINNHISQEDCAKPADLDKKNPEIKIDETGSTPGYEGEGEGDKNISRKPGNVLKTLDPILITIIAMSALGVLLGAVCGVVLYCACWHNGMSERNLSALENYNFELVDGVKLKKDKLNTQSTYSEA
Method: To measure phage binding on cells, 2×10^5 suspended cells were incubated with 7×10^8 pfu/mL of T7 phage in DMEM/BSA 1% for 1 h at 4° C. Ligand-blocking antibodies or control goat IgG isotype (10 μg/sample) were added 30 min prior to phage incubation. The cells were washed four times with DMEM/BSA 1%, and lysed with lysogeny broth containing 1% Nonidet P-40 (LB/NP40) before phage titration.
The role of the CendR motif in the LyP-1 peptide was investigated by testing the binding of phage displaying the predicted active CendR fragment CGNKRTR (tLyP-1 for truncated LyP-1; SEQ ID NO:4) and other truncated forms of LyP-1 to cultured tumor cells. DU145 prostate carcinoma cells were used, which express NRP1, but not NRP2 (FIG. 6). As these peptides could have other receptors on the DU145 cells, inhibition of cell binding by a function-blocking anti-NRP1 antibody was used as an indicator of NRP1 dependence of phage binding. […] This is supported by recent modeling studies showing that glycine-containing peptides (G7 (SEQ ID NO:104), G3RG3 (SEQ ID NO:105), and G4RG2 SEQ ID NO:106) were able to dock in NRP1 binding pocket without major deformation of the receptor structure (Haspel et al, 2011).

p32 [2] = molecular target: T2, p32 (Homo sapiens, UniProt Q07021); experiment: ELISA-based saturation assay of FAM-peptides on purified p32; type: binding; conditions: wells coated with 3 μg/mL p32, 37° C. 1 h
T2 sequence (Q07021 74-282): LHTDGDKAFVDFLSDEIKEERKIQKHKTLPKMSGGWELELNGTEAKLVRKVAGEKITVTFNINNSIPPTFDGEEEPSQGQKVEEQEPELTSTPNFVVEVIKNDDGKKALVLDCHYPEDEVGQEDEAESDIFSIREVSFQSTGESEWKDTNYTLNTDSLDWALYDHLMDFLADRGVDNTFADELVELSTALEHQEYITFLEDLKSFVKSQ
Method: Binding of FAM-tLyP-1 and FAM-LyP-1 to p32 was measured by an ELISA-based assay. Microtiter wells coated with 3 μg/mL of purified p32 (Fogal et al, 2008) were incubated with increasing concentrations of FAM-peptides at 37° C. for 1 h. After washing with cold PBS added with 0.01% Tween 20 and 0.2 M NaCl, fluorescence was read at 495 nm.
(§1) The MDA-MB-435 cells express the cell surface LyP-1 primary receptor p32 (Fogal et al, 2008). To test whether internalization of tLyP-1 and LyP-1 could occur through this receptor, tLyP-1 capacity to bind p32 was explored. […] Thus, only the intact LyP-1 peptide binds to p32.

p32 [3] = molecular target: T3, p32 (Mus musculus, UniProt O35658); experiment: Affinity chromatography of 4T1 breast tumor extracts on tLyP-1; type: binding; conditions: data not shown
T3 construct: from tissue; host or cells: 4T1 breast tumor extracts (orthotopic tumors in BALB/c mice)
T3 sequence (O35658 71-278): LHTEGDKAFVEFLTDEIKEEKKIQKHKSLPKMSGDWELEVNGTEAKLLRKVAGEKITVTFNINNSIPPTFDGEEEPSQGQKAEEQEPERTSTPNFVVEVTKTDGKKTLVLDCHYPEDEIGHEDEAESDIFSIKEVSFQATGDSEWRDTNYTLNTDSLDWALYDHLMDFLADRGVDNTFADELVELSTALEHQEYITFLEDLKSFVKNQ
Excerpt: as §1

tumor [4] = experiment: Tumor penetration of a compound co-administered with tLyP-1; type: in vivo; conditions: tLyP-1 peptide injected together with CGKRK; confocal microscopy
Excerpt: Thus, tLyP-1 can also induce penetration of a co-administered compound.

4T1 tumors = experiment: FAM-peptide homing in 4T1 tumor bearing mice; type: in vivo, BALB/c mice; conditions: i.v., 1 h circulation
Method: To produce 4T1 tumors, BALB/c mice were orthotopically injected into the mammary fat pad with 10^6 cells suspended in 100 μL of PBS. To produce MDA-MB-435 breast tumors, BALB/C athymic nude mice were orthotopically injected into the mammary fat pad with 2×10^6 cells suspended in 100 μL of PBS.
4T1 tumor bearing BALB/c mice and MDA-MB-435 tumor bearing nude mice were intravenously injected with respectively 150 μL and 100 μL of 1 mM FAM-labeled synthetic peptides. After 1 h circulation, mice were perfused and tissues were collected and observed under UV light (Illuma—tool Bright Light System LT-9900) and processed for immunofluorescence analysis.
150 μl of 1 mM FAM-tLyP-1 or control FAM-[…] was intravenously injected into 4T1 tumor bearing mice. The peptides were allowed to circulate for 1 h and tumors and organs were collected and viewed under UV light. […] FAM-tLyP-1 (100 μl of 1 mM) was intravenously injected into MDA-MB-435 tumor bearing mice. The peptide was allowed to circulate for 45 min, and tumor and organs were collected and viewed under UV light. […] Confocal microscope images were made of the tumor and of normal organs after 1 h of FAM-tLyP-1 circulation in 4T1 tumor bearing mice.

PPC1 cells = experiment: Phage binding and internalization into PPC1 cells (confocal microscopy); type: cell-based, human; conditions: 30 min pre-incubation, increasing concentrations, phage 2 h
Method: (§2) Cells were grown on collagen I-coated coverslips (BD Biosciences) for 24-72 h. After 4% PFA fixation, cells were stained with antibodies following the same procedure as for tumor sections, and mounted in DAPI-containing mounting media. For phage binding assay, 10^9 pfu of phage in cell culture medium were incubated for 1-2 h. When neutravidin-peptide inhibitors were used, they were added to the cell medium 30 min prior to phage incubation. Neutravidin alone, at the maximum concentration used in the assay, was used as a control. Cells were examined on a Fluoview 500 confocal microscope (Olympus America).
Phage were detected by staining with anti-T7 phage polyclonal antibody. Nuclei were stained with DAPI. […] Cells were co-stained for NRP1 and nuclei were stained with DAPI. […] Non-conjugated neutravidin was used as a control. Nuclei were stained with DAPI. Cells were analyzed by confocal microscopy.

MDA-MB-435 cells = experiment: Phage binding and internalization into MDA-MB-435 cells (confocal microscopy); type: cell-based, human; conditions: 30 min pre-incubation, increasing concentrations, phage 2 h
Method: as §2
Cells were co-stained for NRP2 and nuclei were stained with DAPI. […] Non-conjugated neutravidin was used as a control. Nuclei were stained with DAPI.
Having established that tLyP-1, but not LyP-1, binds to NRP1 and NRP2, but both peptides internalize into tumor cells, it was realized that LyP-1 is converted into tLyP-1 and that the two peptides are taken up by cells through the CendR pathway. The effect of an excess of tLyP-1 on LyP-1 internalization was tested. […] After 30 min pre-incubation with increasing concentrations of neutravidin-tLyP-1 peptide, MDA-MB-435 cells were incubated with LyP-1 phage for 2 h. Phage were stained with anti-T7 antibody. Nuclei were stained with DAPI.

In the case of CGKRK [tumor-homing peptide], the “Exit from blood vessels of peptide alone” value (tumor [1]) is given as “unable to get out of blood vessels by itself”.
For CGNK, the “Effect of ligand-blocking anti-NRP1 on phage binding to DU145 cells (in words)” value (from here on “Effect of ligand-blocking anti-NRP1”) (NRP1) was “not enough to confer significant ability to bind to NRP1”.
With CGNKR the “Effect of ligand-blocking anti-NRP1” value (NRP1) was “not enough to confer significant ability to bind to NRP1”.
For “CGNKRTR [tLyP-1, truncated form of LyP-1, in which CendR motif is exposed]”, the “Binding to purified p32” value (p32 [2]) was “low binding”, the “Binding of p32 from tumor extract to peptide affinity matrix” value (p32 [3]) was “no binding of p32” and the “Tumor penetration of co-injected CGKRK” value (tumor [4]) was “enhanced tumor penetration of CGKRK”.
With CGNKRTRG the “Effect of ligand-blocking anti-NRP1” value (NRP1) was “mild reproducible decrease”.
With “FAM-ARALPSQRSR: control peptide, fluorescein-labeled ARALPSQRSR (not fully specified; fluorescein label)” the “Tumor fluorescence / accumulation of FAM-peptide” value (4T1 tumors) was “did not accumulate in the tumors; also recorded: absence of fluorescence”.
For “oligomeric RPARPAR peptide: tetrameric biotinylated RPARPAR peptide conjugated with neutravidin (Biotin-RPARPAR; not fully specified (C-terminus); also: tetrameric, biotinylated, conjugated with neutravidin)”, the “Inhibition of tLyP-1 phage internalization into PPC1 cells” value (PPC1 cells) was “inhibited in a dose-dependent manner” and the “Inhibition of tLyP-1 phage binding and internalization in MDA-MB-435 cells” value (MDA-MB-435 cells) was “blocked the binding and internalization”.
